Data as given in US20030219494A1, “Compositions and methods of using them” (priority 2002, published 2003).
Where two headings read alike, the source gives them in different places.

Tests used:
[1] = system: mechanical allodynia in STZ-diabetic DA rats; assay: von Frey antinociception (relief of mechanical allodynia) after single s.c. opioid in STZ-diabetic DA rats, standard chow or dietary L-arginine; conditions: for ED50: Rattus norvegicus, sc; for peak antinociception / time of decline of antinociception to baseline levels (<20% MPE) / time to peak antinociception: 3 wks post-STZ
Protocol: Deep and stable anaesthesia was induced with a mixture of ketamine (100 mg/kg, i.p.) and xylazine (16 mg/kg, i.p.) to facilitate insertion of a polyethylene cannula (previously filled with 0.1 ml of sterile saline) into the right common jugular vein. Jugular vein cannulae were tested for correct placement by the withdrawal of a small amount of blood. Diabetes was induced following an acute i.v. injection of streptozotocin (STZ) (85 mg/kg) in 0.1 M citrate buffer (pH 4.5) into the jugular vein.
Naïve non-diabetic rats (n=36) were used in the control experiments. Following STZ administration, benzylpenicillin (60 mg, s.c.) was administered to prevent infection and rats were monitored closely during surgical recovery. Rats were then housed singly or in pairs for period of 3 wks to 38 wks, depending upon the study cohort to which they belonged.
(§1) Multiple aliquots of these stock solutions were stored at −20° C. until required. […] Whilst under light anaesthesia with CO2/O2 (50:50%), rats received a single s.c. injection (100 μL) of one opioid or vehicle (saline) into the dorsal region of the base of the neck, using a 250 μL Hamilton syringe.
(§2) Mechanical allodynia, the distinguishing feature of diabetic neuropathic pain, was quantified using von Frey filaments. Rats were placed in a metabolic cage (20 cm×20 cm×20 cm) with a metal mesh floor and allowed to acclimatise for approximately 10 min. von Frey filaments were used to quantify the lowest mechanical threshold required for a brisk paw withdrawal reflex. The force was applied to the plantar surface of the left hindpaw and held until the filament buckled slightly. The absence of a response after 5 s prompted application of the next filament of increasing force. Filaments available for use included those that produced a buckling weight of 2, 4, 5, 6, 8, 10, 12, 14, 16, and 18 g. Filaments were calibrated daily before undertaking antinociceptive testing. […] Pre-drug (opioid or saline) responses were the mean of three readings taken ≈5 min apart. Assessment of von Frey filament responsiveness was determined at the following times post-opioid (or saline) administration: 15, 30, 45, 60, 90, 120 and 180 min.
(§3) The von Frey scores for individual rats were converted to the Percentage of the Maximum Possible Antinociceptive Effect (% MPE), according to the formula: [formula]
(§4) The mean (±SEM) percentage maximum AUC (% Max AUC) was calculated according to the following formula: [formula]
(§5) ED50 estimation was facilitated by the inclusion of theoretical maximum and minimum % Max AUC values.
This study comprised three groups of STZ-diabetic DA rats. […] Subsequent doses were chosen to facilitate construction of dose-response curves for the alleviation of tactile allodynia. Antinociception was quantified using calibrated von Frey filaments.
At 9 wks post-STZ administration, Group 1 STZ-diabetic rats received a dietary intervention of an L-arginine supplement (1 g per day) incorporated into rat chow, until the end of the 24 wk study period.
At 14 wks post-STZ administration, a dietary intervention comprising L-arginine supplementation (1 g per day in rat chow) was initiated which was continued for another 8 wks.
At 30 wks post-STZ administration, dietary L-arginine supplementation (1 g/day in rat chow) was initiated and continued for 8 wks.

[2] = system: naïve control non-diabetic DA rats; assay: von Frey antinociception after single s.c. opioid in control non-diabetic DA rats; assay type: in vivo, rat; conditions: for ED50: s.c.
Protocol: as §1, §2, §3, §4, §5
Weight-matched naïve control DA rats received dietary L-arginine supplementation (1 g per day in rat chow) for at least 1 wk prior to acute opioid administration and concomitant antinociceptive testing. Importantly, since diabetic rats eat twice as much as naïve control non-diabetic rats, the concentration of L-arginine in rat chow administered to control non-diabetic rats was doubled to maintain consistent L-arginine dosing between the STZ-diabetic rats and the control non-diabetic rats.

[3] = system: rats with a chronic constriction injury (CCI) of the sciatic nerve; conditions: relief of mechanical allodynia; cited from earlier work
naïve Dark Agouti rats = conditions: s.c., tail flick test; cited from earlier work
[4] = body weight of STZ-diabetic rats given dietary L-arginine; assay type: in vivo, rat
Description: Group 3 STZ-diabetic rats, (n=6, 224.7±2.9 g, mean±SEM) were the same rats used in Example 1 above. […] At 30 wks post-STZ administration, dietary L-arginine supplementation (1 g/day in rat chow) was initiated and continued for 8 wks.

[5] = system: tactile allodynia in STZ-diabetic DA rats; assay: baseline von Frey paw withdrawal thresholds in STZ-diabetic rats given dietary L-arginine; assay type: in vivo, rat
Description: Filaments were calibrated daily before undertaking antinociceptive testing.

[6] = body weight of control non-diabetic rats given dietary L-arginine; assay type: in vivo, rat; conditions: control non-diabetic rats after 1 wk dietary L-arginine
Description: Importantly, since diabetic rats eat twice as much as naïve control non-diabetic rats, the concentration of L-arginine in rat chow administered to control non-diabetic rats was doubled to maintain consistent L-arginine dosing between the STZ-diabetic rats and the control non-diabetic rats.

[7] = 24 wks post-STZ / full 24 wk study period, standard chow
[8] = 504 h, read-out: Mean (±SEM) ED50, STZ-diabetic rats 3 wks post-STZ, standard chow, s.c.
[9] = 1512 h, STZ-diabetic rats at 3 and 9 wks post-STZ, standard chow
[10] = 1512 h, read-out: Mean (±SEM) ED50, STZ-diabetic rats 9 wks post-STZ, standard chow (before L-arginine), s.c.
[11] = STZ-diabetic rats 12 wks post-STZ after 3 wks dietary L-arginine (1 g/day), s.c.
[12] = STZ-diabetic rats 24 wks post-STZ after 15 wks dietary L-arginine (1 g/day), s.c.
[13] = Rattus norvegicus, sc, control naïve non-diabetic rats, standard chow, von Frey % Max AUC, read-out: Mean (±SEM) ED50
[14] = Group 1, 12 wks post-STZ (3 wks L-arginine)
[15] = Group 2, 18 wks post-STZ (4 wks L-arginine)
[16] = Group 2, 22 wks post-STZ (8 wks L-arginine)
[17] = Group 3, 34 wks post-STZ (4 wks L-arginine)
[18] = Group 3, 38 wks post-STZ (8 wks L-arginine)
[19] = 3 wks supplementation, 9 to 12 wks post-STZ

CN1CC[C@]23c4c5ccc(O)c4O[C@H]2[C@@H](O)C=C[C@H]3[C@H]1C5 [morphine]
antinociceptive efficacy [1, 7]: remained completely abolished
ED50 [1, 8]: 6.1 mg/kg
ED50 [1, 9]: 6.1 ± 0.3 mg/kg
ED50 [1, 10]: 6.1 mg/kg
ED50 [1, 11]: 7 ± 0.5 mg/kg
ED50 [1, 12]: 5 ± 0.9 mg/kg
Mean (±SEM) ED50 ([1]; STZ-diabetic rats 12 wks post-STZ, standard chow, s.c.): No efficacy
Mean (±SEM) ED50 ([1]; STZ-diabetic rats 24 wks post-STZ, standard chow, s.c.): No efficacy
peak antinociception ([1]; morphine 4 mg/kg s.c.): 70 % MPE
time of decline of antinociception to baseline levels (<20% MPE) ([1]; morphine 4 mg/kg s.c.): ≤ 90 min
time to peak antinociception ([1]; morphine 4 mg/kg s.c.): ≤ 15 min
antinociceptive efficacy ([1]; morphine 6.1 mg/kg s.c., 14 wks post-STZ, before L-arginine (Group 2)): completely abolished
efficacy for the relief of mechanical allodynia ([1]; morphine 6.1 mg/kg s.c., 16 wks post-STZ, 7 wks dietary L-arginine): maintained
antinociceptive efficacy ([1]; morphine 14.2 mg/kg s.c., 12 wks post-STZ): remained completely abolished
antinociception ([1]; morphine 18 mg/kg s.c., 12 wks post-STZ): absence of antinociception
behavioural side effects ([1]; morphine 18 mg/kg s.c., STZ-diabetic rats 12 wks post-STZ (myoclonus, biting of cage)): mild neuro-excitatory behaviours
antinociceptive efficacy ([1]; morphine s.c., 24 wks post-STZ, 15 wks dietary L-arginine): maintained
potency for relief of mechanical allodynia as percent of that in control non-diabetic rats ([1]; morphine, STZ-diabetic rats, 11 wks dietary L-arginine (20 wks post-STZ)): ≈ 90%
ED50 [2, 13]: 2.4 mg/kg
ED50 ([2]; control non-diabetic rats, dietary L-arginine 1 g/day for 1 wk): does not differ significantly

COc1ccc2c3c1O[C@H]1C(=O)CC[C@@]4(O)[C@@H](C2)N(C)CC[C@]314 [oxycodone]
antinociceptive efficacy/potency ([1]; 12 wks post-STZ, standard chow, s.c.): maintained
antinociceptive efficacy [1, 7]: maintained
ED50 [1, 8]: 2 mg/kg
ED50 [1, 9]: 2.1 ± 0.4 mg/kg
ED50 [1, 10]: 2.1 mg/kg
ED50 ([1]; 2016 h, read-out: Mean (±SEM) ED50, STZ-diabetic rats 12 wks post-STZ, standard chow, s.c.): 4.1 mg/kg
ED50 ([1]; 4032 h, read-out: Mean (±SEM) ED50, STZ-diabetic rats 24 wks post-STZ, standard chow, s.c.): 4.2 mg/kg
ED50 [1, 11]: 2 ± 0.3 mg/kg
ED50 [1, 12]: 1.8 ± 0.3 mg/kg
potency relative to morphine for alleviation of mechanical allodynia ([1]; STZ-diabetic rats 3 wks post-STZ, s.c.): ≈ 3 times
decrease in potency between 9 and 12 wks post-STZ ([1]; STZ-diabetic rats, standard chow): 2 fold
decrease in antinociceptive potency relative to control non-diabetic rats ([1]; at 12 wks post-STZ, unchanged at 24 wks, standard chow): 4 fold
rightward shift in the dose-response curve versus non-diabetic rats ([1]; by 3 wks post-STZ): ≈ 1.7 fold
decrease in potency relative to weight-matched control non-diabetic rats ([1]; by 9 wks post-STZ): ≈ 2 fold
peak antinociception ([1]; oxycodone 1.7 mg/kg s.c.): 90 % MPE
time of decline of antinociception to baseline levels (<20% MPE) ([1]; oxycodone 1.7 mg/kg s.c.): ≤ 120 min
time to peak antinociception ([1]; oxycodone 1.7 mg/kg s.c.): ≤ 30 min
% MPE AUC ([1]; oxycodone 2.0 mg/kg s.c., 9 wks post-STZ, standard chow): 108.7±13.2 % MPE-h
% MPE AUC ([1]; oxycodone 2.0 mg/kg s.c., 12 wks post-STZ, standard chow): 37.0±1.1 % MPE-h
% MPE AUC (±SEM) ([1]; oxycodone 2.0 mg/kg s.c., 20 wks post-STZ, 11 wks dietary L-arginine (Group 1)): 160.3±7.6 % MPE-h
% MPE AUC ([1]; oxycodone 2.0 mg/kg s.c., 22 wks post-STZ, 8 wks dietary L-arginine (Group 2)): 139.4±9.4 MPE-h
% MPE AUC ([1]; oxycodone 2.0 mg/kg s.c., 38 wks post-STZ, 8 wks dietary L-arginine (Group 3)): 147.0±1.9 % MPE-h
% MPE AUC ([1]; oxycodone 4.0 mg/kg s.c., 24 wks post-STZ, standard chow): 144.0±13.7 MPE-h
potency for relief of mechanical allodynia as percent of that in diabetic rats on standard chow at 9 wks post-STZ ([1]; oxycodone, 11 wks dietary L-arginine (20 wks post-STZ)): ≈ 150%
potency relative to morphine [3]: ≈ 4 times
ED50 ([2]; Rattus norvegicus, sc, 168 h, control non-diabetic rats, dietary L-arginine 1 g/day for 1 wk, read-out: ED50): 1 ± 0.1 mg/kg
ED50 [2, 13]: 1.2 mg/kg
potency relative to morphine ([2]; printed: at 3 and 9 wks post-STZ, s.c. route, naïve non-diabetic rats): ≈ 2 fold
potency relative to morphine (naïve Dark Agouti rats): ≈ 3 times

N=C(N)NCCC[C@H](N)C(=O)O [L-arginine]
mean (±SEM) body weight [4, 14]: 229.0 (±6.0) g
mean (±SEM) body weight ([4]; Group 1, 16 wks post-STZ (7 wks L-arginine)): 218.0 (±7.2) g
mean (±SEM) body weight ([4]; Group 1, 20 wks post-STZ (11 wks L-arginine), n=6): 253.4 (±9.9) g
mean (±SEM) body weight ([4]; Group 1, 24 wks post-STZ (15 wks L-arginine), n=25): 234.5 (±5.1) g
mean (±SEM) body weight [4, 15]: 203.2 (±6.4) g
mean (±SEM) body weight [4, 16]: 220.9 (±11.6) g
mean (±SEM) body weight [4, 17]: 207.8 (±10.7) g
mean (±SEM) body weight [4, 18]: 221.7 (±11.7) g
effect of dietary L-arginine on morphine's antinociceptive efficacy [1, 19]: prevented the abolition
effect of dietary L-arginine on oxycodone potency [1, 19]: prevented the 2-fold decrease
effect of dietary L-arginine on antinociceptive potency of morphine ([1]; 4 wks supplementation (30 to 34 wks post-STZ), Group 3): partially restored
effect of dietary L-arginine on antinociceptive efficacy of s.c. morphine (6.1 mg/kg) ([1]; 4 wks supplementation, Group 2, 18 wks post-STZ): restored
effect of late-initiated dietary L-arginine on morphine efficacy ([1]; started 14 and 30 wks post-STZ (groups 2 and 3), after as little as 4 wks): restored morphine efficacy
paw withdrawal threshold ([5]; Group 1, 9 wks post-STZ (start of dietary L-arginine 1 g/day)): 6.8 (±0.3) g
paw withdrawal threshold [5, 14]: 4.3 (±0.1) g
paw withdrawal threshold ([5]; Group 1, 24 wks post-STZ (15 wks L-arginine)): 5.2 (±0.1) g
paw withdrawal threshold [5, 15]: 4.9 (±0.2) g
paw withdrawal threshold [5, 16]: 6.1 (±0.4) g
paw withdrawal threshold [5, 17]: 3.9 (±0.2) g
paw withdrawal threshold [5, 18]: 5.0 (±0.2) g
mean (±SEM) body weight [6]: 236.3 g
